In US10865191B2, “Heterocyclic compounds useful as modulators of TNF alpha” (BRISTOL-MYERS SQUIBB COMPANY, priority 2015, dated 2020):
Read-outs that look alike come from different tables or passages of the source.

Biological target: TNFα (Homo sapiens, UniProt P01375)
Test: TNF induced HEK-Blue assay (NF-kB-driven secreted alkaline phosphatase reporter)
Format: cell-based
Settings: TNFα 0.5 ng/mL, HEK-Blue-CD40L cells, 18 h
Summary of the method: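 HEK-Blue-CD40L cells (NF-kB-driven SEAP reporter), 20,000/well, added after 30 min pre-incubation of compound (0.004–25 μM final) with TNFα 0.5 ng/mL final at 37 °C; 18 h incubation. SEAP read with QUANTI-Blue at 620 nm; IC50 from 4-parameter logistic fit, normalized to unstimulated and stimulated DMSO controls.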

[1] = read-out: TNF induced HEK-Blue assay IC50 value
[2] = TNF induced HEK-Blue assay IC50 value

Chain of TNFα (P01375 77-233 limits assumed): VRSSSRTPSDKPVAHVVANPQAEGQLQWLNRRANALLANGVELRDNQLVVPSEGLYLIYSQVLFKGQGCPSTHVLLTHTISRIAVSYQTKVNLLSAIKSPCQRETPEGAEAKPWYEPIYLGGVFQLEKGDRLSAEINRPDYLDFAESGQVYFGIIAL

IC50 [1] [nM]	IC50 [2] [nM]	Compound
1000 to 10000		CC(=O)NC1CCC(O)(c2ncc(-c3ccc4ncc(Cl)c(N[C@H](C)c5ccccc5F)c4c3)cn2)CC1 (stereo partly drawn) [Example 132, (R)—N-(4-(5-(3-chloro-4-((1-(2-fluorophenyl)ethyl)amino)quinolin-6-yl)pyrimidin-2-yl)-4-hydroxycyclohexyl)acetamide]
< 1000		C[C@@H](Nc1c(Cl)cnc2ccc(-c3cnc(C(C)(C)O)nc3)cc12)c1cccc(N2CCOCC2)c1 [Example 136, (R)-2-(5-(3-chloro-4-((1-(3-morpholinophenyl)ethyl)amino)quinolin-6-yl)pyrimidin-2-yl)propan-2-ol]
10000 to 25000		CC(C)(O)c1ncc(-c2ccc3ncc(Cl)c(NCc4ccc(C(F)(F)F)cc4)c3c2)cn1 [Example 145, 2-(5-(3-chloro-4-(4-(trifluoromethyl)benzylamino)quinolin-6-yl)pyrimidin-2-yl)propan-2-ol]
< 1000		CC(C)(O)c1ncc(-c2ccc3ncc(Cl)c(NCc4ccccc4C(F)(F)F)c3c2)cn1 [Example 146, 2-(5-(3-chloro-4-((2-(trifluoromethyl)benzyl)amino)quinolin-6-yl)pyrimidin-2-yl)propan-2-ol]
1000 to 10000		CC(C)(O)c1ncc(-c2ccc3ncc(Cl)c(NCc4ccc(OC(F)F)cc4)c3c2)cn1 [Example 148, 2-(5-(3-chloro-4-((4-(difluoromethoxy)benzyl)amino)quinolin-6-yl)pyrimidin-2-yl)propan-2-ol]
	< 1000	C[C@@H](Nc1c(Cl)cnc2ccc(-c3cnc(C(C)(C)O)nc3)cc12)c1ccccc1 [Example 154, (R)-2-(5-(3-chloro-4-((1-phenylethyl)amino)quinolin-6-yl)pyrimidin-2-yl)propan-2-ol]
< 1000		CC(C)(O)c1ncc(-c2ccc3ncc(Cl)c(NC4(c5ccccc5F)CC4)c3c2)cn1 [Example 158, 2-(5-(3-chloro-4-((1-(2-fluorophenyl)cyclopropyl)amino)quinolin-6-yl)pyrimidin-2-yl)propan-2-ol]
1000 to 10000		CC(C)(O)c1ncc(-c2ccc3ncc(Cl)c(NC4(c5ccccc5)CC4)c3c2)cn1 [Example 161, 2-(5-(3-chloro-4-((1-phenylcyclopropyl)amino)quinolin-6-yl)pyrimidin-2-yl)propan-2-ol]
10000 to 25000		COc1nc2ccc(-c3cnc(C(C)(C)O)nc3)cc2c(Nc2cc(C)ccc2C)c1C [Example 180, 2-(5-(4-(2,5-dimethylphenylamino)-2-methoxy-3-methylquinolin-6-yl)pyrimidin-2-yl)propan-2-ol]
10000 to 25000		Cc1ccc(C)c(Nc2c(C)c(O)nc3ccc(-c4cnc(C(C)(C)O)nc4)cc23)c1 [Example 181, 4-((2,5-dimethylphenyl)amino)-6-(2-(2-hydroxypropan-2-yl)pyrimidin-5-yl)-3-methylquinolin-2-ol]
10000 to 25000		CC(C)(O)c1ncc(-c2ccc3ncc(Cl)c(NC(C)(C)c4cccc(C(F)(F)F)c4)c3c2)cn1 [Example 182, 2-(5-(3-chloro-4-((2-(3-(trifluoromethyl)phenyl)propan-2-yl)amino)quinolin-6-yl)pyrimidin-2-yl)propan-2-ol]
< 1000		Cc1ccc(C)c(Nc2c(F)c(C)nc3ccc(-c4cnc(C(C)(C)O)nc4)cc23)c1 [Example 183, 2-(5-(4-((2,5-dimethylphenyl)amino)-3-fluoro-2-methylquinolin-6-yl)pyrimidin-2-yl)propan-2-ol]
< 1000		Cc1ccc(C)c(Nc2c(C)c(C)nc3ccc(-c4cnc(C(C)(C)O)nc4)cc23)c1 [Example 184, 2-(5-(4-((2,5-dimethylphenyl)amino)-2,3-dimethylquinolin-6-yl)pyrimidin-2-yl)propan-2-ol]
10000 to 25000		CC(C)(O)c1ncc(-c2ccc3ncc(Cl)c(NC(C)(C)c4ccc(C(F)(F)F)cc4)c3c2)cn1 [Example 185, 2-(5-(3-chloro-4-((2-(4-(trifluoromethyl)phenyl)propan-2-yl)amino)quinolin-6-yl)pyrimidin-2-yl)propan-2-ol]
10000 to 25000		CNC(=O)c1ccc(-c2ccc3nc(C)c(F)c(Nc4cc(C)ccc4C)c3c2)cn1 [Example 186, 5-(4-((2,5-dimethylphenyl)amino)-3-fluoro-2-methylquinolin-6-yl)-N-methylpicolinamide]
< 1000		Cc1ccc(C)c(Nc2c(F)c(C)nc3ccc(-c4cnc(N5CCN(CC(=O)O)CC5)nc4)cc23)c1 [Example 187, 2-(4-(5-(4-((2,5-dimethylphenyl)amino)-3-fluoro-2-methylquinolin-6-yl)pyrimidin-2-yl)piperazin-1-yl)acetic acid]
< 1000		C=Cc1ccc(F)c([C@@H](C)Nc2c(Cl)cnc3cc(F)c(-c4cnc(C(C)(C)O)nc4)nc23)c1 [Example 188, (R)-2-(5-(7-chloro-3-fluoro-8-((1-(2-fluoro-5-vinylphenyl)ethyl)amino)-1,5-naphthyridin-2-yl)pyrimidin-2-yl)propan-2-ol]
	< 1000	CC(C)C(Nc1c(Cl)cnc2ccc(-c3cnc(C(C)(C)O)nc3)cc12)c1ccccc1F (centres unmarked) [Example 189, 2-(5-(3-chloro-4-((1-(2-fluorophenyl)-2-methylpropyl)amino)quinolin-6-yl)pyrimidin-2-yl)propan-2-ol]

IC50 [1] [nM]	IC50 [2] [nM]	Compound
< 1000		C[C@@H](Nc1c(Cl)cnc2cc(F)c(-c3cnc(C(C)(C)O)nc3)nc12)c1ccccc1 [Example 193, (R)-2-(5-(7-chloro-3-fluoro-8-((1-phenylethyl)amino)-1,5-naphthyridin-2-yl)pyrimidin-2-yl)propan-2-ol]
< 1000		CC(C)(O)c1ncc(-c2nc3c(N[C@@H](c4ccccc4F)C(F)F)c(Cl)cnc3cc2F)cn1 [Example 207, (S)-2-(5-(7-chloro-8-((2,2-difluoro-1-(2-fluorophenyl)ethyl)amino)-3-fluoro-1,5-naphthyridin-2-yl)pyrimidin-2-yl)propan-2-ol]
< 1000		C[C@H](Nc1c(Cl)cnc2cc(F)c(-c3cnc(C(C)(C)O)nc3)nc12)c1ccccc1 [Example 208, (S)-2-(5-(7-chloro-3-fluoro-8-((1-phenylethyl)amino)-1,5-naphthyridin-2-yl)pyrimidin-2-yl)propan-2-ol]
< 1000		Cc1nc2cc(F)c(-c3cnc(C(C)(C)O)nc3)nc2c(N[C@H](C)c2ccccc2)c1Cl [Example 213, (R)-2-(5-(7-chloro-3-fluoro-6-methyl-8-((1-phenylethyl)amino)-1,5-naphthyridin-2-yl)pyrimidin-2-yl)propan-2-ol]
< 1000		C=Cc1ccc(F)c([C@@H](Nc2c(Cl)cnc3cc(F)c(-c4cnc(C(C)(C)O)nc4)nc23)C(F)F)c1 [Example 215, (R)-2-(5-(7-chloro-8-((2,2-difluoro-1-(2-fluoro-5-vinylphenyl)ethyl)amino)-3-fluoro-1,5-naphthyridin-2-yl)pyrimidin-2-yl)propan-2-ol]
	< 1000	C[C@@H](Nc1c(Cl)cnc2ccc(-c3cnc(C(C)(C)O)nc3)cc12)c1ccccc1F [Example 217, (R)-2-(5-(3-chloro-4-(1-(2-fluorophenyl)ethylamino)quinolin-6-yl)pyrimidin-2-yl)propan-2-ol]
< 1000		C[C@@H](Nc1c(Cl)cnc2ccc(-c3cnc(N4CCOCC4)nc3)cc12)c1ccccc1F [Example 219, (R)-3-chloro-N-(1-(2-fluorophenyl)ethyl)-6-(2-morpholinopyrimidin-5-yl)quinolin-4-amine]
10000 to 25000		C[C@@H](Nc1c(Cl)cnc2ccc(-c3ccc(CO)cc3)cc12)c1ccccc1F [Example 220, (R)-(4-(3-chloro-4-((1-(2-fluorophenyl)ethyl)amino)quinolin-6-yl)phenyl)methanol]
	< 1000	C[C@@H](Nc1c(Cl)cnc2ccc(-c3ccc(S(C)(=O)=O)nc3)cc12)c1ccccc1F [Example 221, (R)-3-chloro-N-(1-(2-fluorophenyl)ethyl)-6-(6-(methylsulfonyl)pyridin-3-yl)quinolin-4-amine]
	< 1000	CCOc1ncc(-c2ccc3ncc(Cl)c(N[C@H](C)c4ccccc4F)c3c2)cn1 [Example 222, (R)-3-chloro-6-(2-ethoxypyrimidin-5-yl)-N-(1-(2-fluorophenyl)ethyl)quinolin-4-amine]
10000 to 25000		CCc1ncc(-c2ccc3ncc(Cl)c(N[C@H](C)c4ccccc4F)c3c2)cn1 [Example 223, (R)-3-chloro-6-(2-ethylpyrimidin-5-yl)-N-(1-(2-fluorophenyl)ethyl) quinolin-4-amine]
< 1000		COC(=O)CN1CCN(c2ncc(-c3ccc4ncc(Cl)c(N[C@H](C)c5ccccc5F)c4c3)cn2)CC1 [Example 224]
	< 1000	C[C@@H](Nc1c(Cl)cnc2ccc(-c3cnc(N4CCS(=O)(=O)CC4)nc3)cc12)c1ccccc1F [Example 225, (R)-4-(5-(3-chloro-4-((1-(2-fluorophenyl)ethyl)amino)quinolin-6-yl)pyrimidin-2-yl)thiomorpholine 1,1-dioxide]
< 1000		C[C@@H](Nc1c(Cl)cnc2ccc(-c3cnc(N4CCNC(=O)C4)nc3)cc12)c1ccccc1F [Example 226, (R)-4-(5-(3-chloro-4-((1-(2-fluorophenyl)ethyl)amino)quinolin-6-yl)pyrimidin-2-yl)piperazin-2-one]
< 1000		C[C@@H](Nc1c(Cl)cnc2ccc(-c3cnc(C4(O)COC4)nc3)cc12)c1ccccc1F [Example 227, (R)-3-(5-(3-chloro-4-((1-(2-fluorophenyl)ethyl)amino)quinolin-6-yl)pyrimidin-2-yl)oxetan-3-ol]
	< 1000	C[C@@H](Nc1c(Cl)cnc2ccc(-c3ccc(C(C)(C)O)cc3)cc12)c1ccccc1F [Example 228, (R)-2-(4-(3-chloro-4-((1-(2-fluorophenyl)ethyl)amino)quinolin-6-yl)phenyl)propan-2-ol]
< 1000		C[C@@H](Nc1c(Cl)cnc2ccc(-c3cnc(N4CCN(CC#N)CC4)nc3)cc12)c1ccccc1F [Example 233, (R)-2-(4-(5-(3-chloro-4-((1-(2-fluorophenyl)ethyl)amino)quinolin-6-yl)pyrimidin-2-yl)piperazin-1-yl)acetonitrile]
